Where a name gives a salt, the structure may show the parent alone. Read-outs that look alike come from different tables or passages of the source.
Columns and labels:
[1] = tested on: MDA MB 435, SKOV3, SKOV3M6/6; assay: cytotoxicity towards panel of human cell lines
Method: (§1) Antimitotic compounds AAG1, AAG7, AAG12, AAG16, AAG20, and AAG26, Taxol®, and combrestastatinA4, were evaluated for cytotoxity towards the panel of human cell lines MDA MB 435 (human breast cancer), SKOV3 (human ovarian cancer), and SKOV3M6/6 (Pgp infected human ovarian cancer). […] The IC50 is the inhibitory concentration required to effectuate fifty percent inhibition of cell growth.

[2] = tested on: A-10 rat smooth muscle cell line; assay: microtubule depolymerization immunofluorescence assay; assay type: cell-based; conditions: 24 h; 250 nM AAG1, 500 nM AAG7, 40 nM AAG16
Method: A-10 rat smooth muscle cells were used since they grow as flat monolayers that are amenable to imaging. The A-10 cells were treated for twenty four (24) hours (h) with EtOH (control), 250 nM (nanomolar) AAG1, 500 nM AAG7, or 40 nM AAG16, respectively. Microtubules were then visualized by indirect immunofluorescence staining with beta-tubulin antibodies. […] Each of the compounds AAG1, AAG7, and AAG16 has potent nanomolar tubulin inhibitory activity. Compounds of the present invention having the structural Formulas III and IV, as set forth herein, inhibit the microtubule dynamics. The inhibition of microtubule dynamics hinders microtubule formation and results in mitotic arrest and initiation of apoptosis or programmed cell death.

[3] = tested on: SKOV3M6/6 (Pgp infected human ovarian cancer); assay: cytotoxicity towards Pgp infected ovarian cancer cell line; conditions: for IC50: Homo sapiens; for calculated relative resistance value: SKOV3M6/6 versus SKOV3, FIG. 4
Method: as §1

NCI 55 human tumor lines = NCI 55 human tumor lines in vitro screen; assay type: cell-based; conditions: all 55 tumor cell lines
From the text: FIGS. 5a and 5b show the results of testing compound AAG1 of the present invention using National cancer Institute (NCl) 55 human tumor lines. The cells lines, which represent leukemia, non-small cell lung cancer, colon cancer, central nervous system cancer, melanoma, ovarian cancer, renal cancer, prostate cancer, and breast cancer, are listed in FIG. 5. Testing was in accordance with the NCI Developmental Therapeutics Program (DTP) In Vitro Cell Line Screening Project (IVCLSP). Methodology for testing under IVCLSP is provided at http://dtp.nci.gov/branches/btb/ivclsp.html.
GI50 is the concentration of chemical required to reduce the growth of treated cells to half that of untreated cells (i.e. control). GI50 represents the concentration of chemical required to effectuate fifty percent inhibition of cell growth.

[4] = tested on: MDA MB 435 human breast cancer; assay: flow cytometric analysis of cell cycle phase distribution; assay type: cell-based; conditions: treatment for twenty four hours
purified tubulin = assay: inhibition of tubulin assembly; assay type: biochemical; conditions: read-out: Inhibition of tubulin assembly IC50 ± SD
Method: The effects of designed compounds 10-14 on the polymerization of purified tubulin were evaluated. This allows for the study of the direct interaction of the compounds with their intracellular target. The ability of these compounds to bind to the colchicine site on tubulin was evaluated by measuring inhibition of [^3H]colchicine binding to tubulin. […] It is therefore likely that 13 binds in the colchicine site.

[5] = tested on: MDA-MB-435 tumor cell line; assay: inhibition of proliferation, sulforhodamine B assay; assay type: cell-based; conditions: read-out: IC50 ± SD (MDA-MB-435) Tumor cells
Method: (§2) However, the reverse orientation of methoxy and methylamino on the naphthyl, compound 11, has no microtubule depolymerization inhibitory activity up to 10 000 nM.

[6] = tested on: colchicine site on tubulin; assay: inhibition of [3H]colchicine binding to tubulin; conditions: 1 μM inhibitor
Method: This allows for the study of the direct interaction of the compounds with their intracellular target. The ability of these compounds to bind to the colchicine site on tubulin was evaluated by measuring inhibition of [^3H]colchicine binding to tubulin.

[7] = tested on: β-III Overexpressing HeLa; assay: antiproliferative activity, isogenic HeLa pair, βIII tubulin; assay type: cell-based; conditions: for Rr: HeLa cell line pair, wild type and βIII tubulin; for IC50: read-out: IC50 ± SD β-III Overexpressing HeLa
From the text: (§3) One mechanism of drug resistance that can lead to chemotherapy failure with tubulin targeting agents is the expression of the βIII isotype of tubulin.

A-10 cells = assay: cell-based phenotypic screen of microtubule disrupting effects; design: species or system rat; conditions: read-out: EC50 in A-10 cells (Tubulin depolymerization inhibitory acitivity)
Method: as §2

Wild type HeLa = assay: antiproliferative activity, isogenic HeLa pair, wild type; assay type: cell-based; conditions: read-out: IC50 ± SD Wild type HeLa
From the text: as §3

tubulin = assay: antitubulin activities; assay type: cell-based; conditions: for IC50: read-out: IC50 (antitubulin agent)
From the text: Compounds 1, 2 are cyclopenta pyrimidine compounds. Their antitubulin activities are set forth above. […] The structural differences between Compounds 1 and 2 lead to several pharmacological ramifications. Among them, the conformation of aniline rings maybe a pivotal factor that results in the affinity difference. In order to validate this, we set forth a preferred representative series of N-methyl-N-methoxynaphthyl cyclopenta[d]pyrimidin-4-amine (4) based on the high potent antibulin agent 3 (IC50=7.0 nM). All these preferred representative methoxynaphthyl substituted bicyclic compounds of this invention have the same function groups and molecular weight, similar Log D.

[8] = Homo sapiens, MDA-MB-435, MDA-MB-435

## COc1ccc(N(C)c2nc(C)nc3c2CC(C)C3)cc1 (centres unmarked) (as salt: chloride) [AAG26, N-(4-Methoxyphenyl)-N,2,6-trimethyl-6,7-dihydro-5H-cyclopenta[d]pyrimidin-4-aminium chloride]
other
  melting point: 196 to 198 °C

## COc1ccc(N(C)c2nc(C)nc3oc(C)cc23)cc1 [AAG1, N-(4-methoxyphenyl)-N,2,6-trimethylfuro[2,3-d]pyrimidin-4-amine]
[1]; MDA MB 435, SKOV3, SKOV3M6/6
  cytotoxic activity toward each of the human cancer cell lines tested: have cytotoxic activity
[2]
  effect on microtubules (immunofluorescence, beta-tubulin antibodies): caused losses of microtubules
[3]
  IC50: 171 nM
  calculated relative resistance value: 4.7
NCI 55 human tumor lines
  GI50: single digit 10^−8 molar levels
[4]
  percentage of cells in the G2/M phases: increased approximately two-fold

## COc1ccc(N(C)c2nc(N)nc3c2CC(C)C3)cc1 (centres unmarked) [AAG7, N^4-(4-Methoxyphenyl)-N^4,6-dimethyl-6,7-dihydro-5H-cyclopenta[d]pyrimidine-2,4-diamine]
[1]; MDA MB 435, SKOV3, SKOV3M6/6
  cytotoxic activity toward each of the human cancer cell lines tested: have cytotoxic activity
[2]
  effect on microtubules (immunofluorescence, beta-tubulin antibodies): caused losses of microtubules

## COc1ccc(N(C)c2ncnc3occ(C)c23)cc1 [AAG16, N-(4-methoxyphenyl)-N,5-dimethylfuro[2,3-d]pyrimidin-4-amine]
[1]; MDA MB 435, SKOV3, SKOV3M6/6
  cytotoxic activity toward each of the human cancer cell lines tested: have cytotoxic activity
[2]
  effect on microtubules (immunofluorescence, beta-tubulin antibodies): caused losses of microtubules
[3]
  IC50: 8.4 nM
[4]
  percentage of cells in the G2/M phases: increased approximately two-fold

## COc1ccc(N(C)c2nc(C)nc3[nH]ccc23)cc1 [AAG20, N-(4-methoxyphenyl)-N,2-dimethyl-7H-pyrrolo[2,3-d]pyrimidin-4-amine]
[1]; MDA MB 435, SKOV3, SKOV3M6/6
  cytotoxic activity toward each of the human cancer cell lines tested: have cytotoxic activity
[4]
  percentage of cells in the G2/M phases: increased approximately two-fold

## COc1ccc(N(C)c2nc(C)nc3c2CC(C)C3)cc1 (centres unmarked) [AAG26, N-(4-Methoxyphenyl)-N,2,6-trimethyl-6,7-dihydro-5H-cyclopenta[d]pyrimidin-4-aminium chloride]
[1]; MDA MB 435, SKOV3, SKOV3M6/6
  cytotoxic activity toward each of the human cancer cell lines tested: have cytotoxic activity
[3]
  IC50: 3.2 nM

## COc1ccc(/C=C\c2cc(OC)c(OC)c(OC)c2)cc1O [CA4, combretastatin A-4, reference compound]
Purified tubulin
  IC50: […]
[5]; MDA-MB-435
  IC50: 3.4 ± 0.6 nM
[6]
  Inhibition of colchicine binding % Inhibition ± SD: 90 ± 0.2%
[7]
  Rr: 0.72
  IC50: 2.5 ± 0.7 nM
A-10 cells; A-10 cells
  EC50: 13 nM
Wild type HeLa
  IC50: 1.8 ± 0.4 nM

## COc1ccc(Nc2nc(C)nc3c2CC(C)C3)cc1 (centres unmarked) [Compound 1]
tubulin
  antitubulin activity in words: almost inactive

## COc1ccc(N(C)c2nc(C)nc3c2CC(C)C3)cc1 (centres unmarked) [Compound 2]
tubulin
  IC50: 25.7 nM

## COc1ccc(N(C)c2nc(C)nc3c2CCC3)cc1 [Compound 3]
[5]; [8]
  IC50: 7 ± 0.7 nM
tubulin
  IC50: 7 nM

## COc1ccc2c(N(C)c3ncnc4c3CCC4)cccc2c1 [Compound 10]
A-10 cells; Rattus norvegicus, A10
  EC50: > 10000 nM

## COc1ccc2c(N(C)c3nc(C)nc4c3CCC4)cccc2c1 [Compound 11, N,2-dimethyl-N-(6′-methoxynaphthyl-1′-amino)-cyclopenta[d]pyrimidin-4-amine]
[7]; Homo sapiens, HeLa
  IC50: > 10000 nM
A-10 cells; Rattus norvegicus, A10
  EC50: > 10000 nM
Wild type HeLa; Homo sapiens, HeLa
  IC50: > 10000 nM

## COc1cccc2cc(N(C)c3ncnc4c3CCC4)ccc12 [Compound 12]
[5]; [8]
  IC50: 33.7 ± 3.4 nM
[7]
  Rr: 1.07
[7]; Homo sapiens, HeLa
  IC50: 14 ± 1 nM
Wild type HeLa; Homo sapiens, HeLa
  IC50: 15 nM

## COc1cccc2cc(N(C)c3nc(C)nc4c3CCC4)ccc12 [Compound 13, N,2-dimethyl-N-(5′-methoxynaphthyl-2′-amino)-cyclopenta[d]pyrimidin-4-amine]
[5]; [8]
  IC50: 10 nM
[5]; MDA-MB-435
  IC50: 10.2 ± 0.46 nM
[7]
  Rr: 1.0
[7]; Homo sapiens, HeLa
  IC50: 4 ± 1 nM
Wild type HeLa; Homo sapiens, HeLa
  IC50: 4 ± 1 nM

## COc1ccc(N(C)c2nc(C)nc3c2CCC3)c2ccccc12 [Compound 14]
[5]; [8]
  IC50: 234 ± 20 nM
[7]
  Rr: 0.47
[7]; Homo sapiens, HeLa
  IC50: 180 ± 40 nM
A-10 cells; Rattus norvegicus, A10
  EC50: 500 ± 2.1 nM
Wild type HeLa; Homo sapiens, HeLa
  IC50: 85 ± 5 nM

## CC(=O)O[C@@]12CO[C@@H]1C[C@H](O)[C@@]1(C)C(=O)[C@H](O)C3=C(C)[C@@H](OC(=O)[C@H](O)[C@@H](NC(=O)OC(C)(C)C)c4ccccc4)C[C@@](O)([C@@H](OC(=O)c4ccccc4)[C@H]21)C3(C)C [Docetaxel, docetaxel, reference compound]
[7]
  Rr: 0.31
[7]; Homo sapiens, HeLa
  IC50: 13 ± 4 nM
Wild type HeLa; Homo sapiens, HeLa
  IC50: 4 ± 2 nM

## CC(=O)O[C@H]1C(=O)[C@@]2(C)[C@H]([C@H](OC(=O)c3ccccc3)[C@]3(O)C[C@H](OC(=O)[C@H](O)[C@@H](NC(=O)c4ccccc4)c4ccccc4)C(C)=C1C3(C)C)[C@]1(OC(C)=O)CO[C@@H]1C[C@@H]2O [Paclitaxel, paclitaxel, reference compound]
[7]
  Rr: 0.33
[7]; Homo sapiens, HeLa
  IC50: 16 ± 1 nM
[3]
  IC50: 4400 nM
  calculated relative resistance value: 2013
Wild type HeLa; Homo sapiens, HeLa
  IC50: 5.3 ± 2 nM

## N-(4-methoxy-phenyl)-6-methyl-5H-pyrrolo[3,2-d]pyrimidine-2,4-diamine [AAG12]
[1]
  cytotoxic activity toward each of the human cancer cell lines tested: have cytotoxic activity
[4]
  percentage of cells in the G2/M phases: increased approximately two-fold

— US20140303188A1, “Substituted Cyclopenta Pyrimidine Bicyclic Compounds Having Antitmitotic And/Or Antitumor Activity And Methods Of Use Thereof” (DUQUESNE UNIVERSITY OF THE HOLY SPIRIT, priority 2008, published 2014)
